Where two headings read alike, the source gives them in different places.
Columns and labels:
[1] = tested on: Leishmania infantum MHOM/MA(BE)/67/ITMAP263 intracellular amastigotes; experiment: microbe, parasite or virus in culture; settings: Macrophage, in Mus musculus
[2] = tested on: axenic L. don. amastigotes (MHOM/SD/62/1S-CL2, LdBOB); experiment: microbe, parasite or virus in culture; settings: Leishmania donovani
[3] = in vitro; settings: human
[4] = in vitro; settings: mouse
[5] = tested on: L. donovani MHOM/ET/67/L82 intracellular amastigotes; settings: read-out: L. donovani MHOM/ET/67/L82 intracellular amastigotes IC50
[6] = tested on: MRC-5SV2 cells; experiment: Cytotoxicity assay on MRC-5SV2 cells (resazurin)
[7] = tested on: Leishmania infantum MHOM/MA(BE)/67/ITMAP263 intracellular amastigotes; settings: for IC50: read-out: L. infantum MHOM/MA(BE)/67/ITMAP263 intracellular amastigotes IC50; for L. Inf. pIC50: from L. infantum intracellular amastigote IC50
[8] = tested on: primary peritoneal mouse macrophages (PMM); experiment: Cytotoxicity to PMM (microscopic scoring within susceptibility assay)
[9] = tested on: primary peritoneal mouse macrophages (PMM); settings: PMM IC50 / L. infantum IC50
[10] = tested on: primary peritoneal mouse macrophages (PMM); experiment: cells; settings: Macrophage, read-out: PMM IC50
[11] = in vitro; settings: human; remark: listed apart in the source
[12] = tested on: Trypanosoma cruzi, Tulahuen CL2, beta-galactosidase strain; experiment: microbe, parasite or virus in culture; settings: MRC5, read-out: T. cruzi Tulahuen C4 (LacZ) IC50
[13] = tested on: L. donovani MHOM/ET/67/L82 intracellular amastigotes; experiment: microbe, parasite or virus in culture; settings: Leishmania donovani, read-out: L. donovani MHOM/ET/67/L82 intracellular amastigotes IC50
[14] = in vitro; settings: human, HepG2 cells
[15] = in vitro; settings: human, HFF-1 cells
[16] = in vitro; settings: PAMPA
[17] = physchem; settings: HPLC, Ascentis Express RP Amide column, pH 7.4, eLogD, experimental
[18] = read-out: L. inf. pIC50, intracellular amastigotes in PMM (converted), geometric mean of a minimum of two experiments ± standard error
[19] = read-out: L. don. pIC50 (converted)
[20] = s9, pH 7.4, Clint human mic., Fig. 2, human microsomes (S9 fractions)
[21] = s9, pH 7.4, Clint mouse mic., Fig. 2, mouse microsomes (S9 fractions)
[22] = read-out: L. Inf. pIC50 (converted)
[23] = read-out: L. infantum MHOM/MA(BE)/67/ITMAP263 intracellular amastigotes IC50
[24] = read-out: L. donovani MHOM/SD/62/1SCL2D axenic-cidal amastigotes IC50
[25] = read-out: L. Inf. pIC50, from L. infantum intracellular amastigote IC50 (converted)
[26] = read-out: L. infantum MHOM/MA(BE)/67/ITMAP263 intracellular amastigotes IC50, intracellular amastigotes
[27] = microsomes, pH 7.4, HLM CLint, human liver microsomes
[28] = microsomes, pH 7.4, MLM CLint, mouse liver microsomes

Row | Structure (SMILES) | IC50 [5] [µM] | CC50 [6] [µM] | IC50 [7] [µM] | IC50 [8] [µM] | SI (vs PMM) [9] | IC50 [10] [µM] | CC50 at 3 days [11] [µM] | also measured
1 | COc1cc(S(=O)(=O)N(Cc2ccccc2)Cc2ccccc2)c(OC)cc1C [Compound 6] |  |  |  |  |  |  |  | IC50 [1, 18]: 0.501 µM; IC50 [2, 19]: 1.51 µM; microsomal CLint at 0.5 μM [3, 20]: 828 µL/min/mg; microsomal CLint at 0.5 μM [4, 21]: 1080 µL/min/mg
2 | CCCCCOc1cc(C)c(Cl)cc1S(=O)(=O)NCc1cccs1 [Compound 7] |  |  |  |  |  |  |  | IC50 [1, 18]: 0.447 µM; IC50 [2, 19]: 4.37 µM; microsomal CLint at 0.5 μM [3, 20]: 624 µL/min/mg; microsomal CLint at 0.5 μM [4, 21]: 693 µL/min/mg
3 | CCCCCOc1cc(C)c(C)cc1S(=O)(=O)NC1CCCC1 [Compound 8] |  |  |  |  |  |  |  | IC50 [1, 18]: 0.589 µM; IC50 [2, 19]: 12 µM; microsomal CLint at 0.5 μM [3, 20]: 567 µL/min/mg; microsomal CLint at 0.5 μM [4, 21]: 416 µL/min/mg
4 | COc1ccc(S(=O)(=O)N(C)C)cc1NC(=O)Cn1c(=O)oc2ccccc21 [Compound Z15399918] | > 32 | > 32 | > 32 | > 32 | 1 |  |  | 
5 | CN(C)S(=O)(=O)c1cccc(NC(=O)CN2CCCc3ccccc32)c1 [Compound Z46159369] | > 32 | > 32 | > 32 | > 32 | 1 |  |  | 
6 | CCN(CC)S(=O)(=O)c1ccc(OC)c(NC(=O)CN(C)c2ccccc2)c1 [Compound Z46175669] | > 32 | > 32 | > 32 | > 32 | 1 |  |  | 
7 | COc1ccc(S(=O)(=O)N(C)C)cc1NC(=O)Cn1c(C)cc2ccccc21 [Compound Z109062140] | > 32 | > 32 | > 32 | > 32 | 1 |  |  | 
8 | COc1ccc(S(=O)(=O)N(C)C)cc1NC(=O)C1Cc2ccccc2O1 (stereo not shown) [Compound Z109062150] | > 32 | > 32 | > 32 | > 32 | 1 |  |  | 
9 | CCN(CC)S(=O)(=O)c1ccc(OC)c(NC(=O)CNc2cccc3c2CCCC3)c1 [Compound Z133511332] | > 32 | > 32 | > 32 | > 32 | 1 |  |  | 
10 | CCOc1cc(S(=O)(=O)N(Cc2ccccc2)Cc2ccccc2)c(OCC)cc1C [Compound Z1198037468] | 25.4 | > 32 | 0.87 | > 32 | 37 |  |  | L. Inf. pIC50 [7]: 6.06
11 | CCCOc1cc(C)c(C)cc1S(=O)(=O)NC1CCCCC1 [Compound Z1198524053] | > 32 | > 32 | 5.38 | > 32 | 6 |  |  | L. Inf. pIC50 [7]: 5.27
12 | CCCCCOc1cc(C)c(C)cc1S(=O)(=O)NC1CCCCC1 [Compound Z1201712752] | 4.32 | 26.1 | 1.04 | > 32 | 31 |  |  | L. Inf. pIC50 [7]: 5.98
13 | CCc1c(C(=O)N2CCc3ccc(S(=O)(=O)NC)cc32)[nH]c(C)c1C(C)=O [Compound Z1262206860] | > 32 | > 32 | > 32 | > 32 | 1 |  |  | 
14 | CCCCOc1cc(C)c(C(C)C)cc1S(=O)(=O)NC1CCCCC1 [Compound Z1346174753] | 3.39 | 3.74 | 1.01 | 16 | 16 |  |  | L. Inf. pIC50 [7]: 6
15 | COc1cc(S(=O)(=O)N2CCN(Cc3ccccc3)CC2)c(OC)cc1C [Compound Z1532943652] | > 32 | > 32 | > 32 | > 32 | 1 |  |  | 
16 | COc1cc(C)c(C)cc1S(=O)(=O)NC1CCCCC1 [Compound Z1542834122] | > 32 | > 32 | > 32 | > 32 | 1 |  |  | 

Row | Structure (SMILES) | IC50 [5] [µM] | CC50 [6] [µM] | IC50 [7] [µM] | IC50 [8] [µM] | SI (vs PMM) [9] | IC50 [10] [µM] | CC50 at 3 days [11] [µM] | also measured
17 | CCCCCOc1cc(C)c(Cl)cc1S(N)(=O)=O [Compound Z1724003560] | > 32 | > 32 | > 32 | > 32 | 1 |  |  | 
18 | CCCCCOc1cc(C)c(C)cc1S(=O)(=O)NC1CC(C)(C)NC(C)(C)C1 [Compound Z2035103903] | 16.2 | 10.9 | 4.76 | > 32 | 7 |  |  | L. Inf. pIC50 [7]: 5.32
19 | CCN(Cc1ccccc1)S(=O)(=O)c1cc(OC)c(C)cc1OC [Compound Z2235810678] | 6.35 | > 32 | 1.08 | > 32 | 30 |  |  | L. Inf. pIC50 [7]: 5.97
20 | CCCOc1cc(C)c(C)cc1S(=O)(=O)NC1CCCC1 [DNDI0002550535] |  |  |  |  |  | > 32 | > 32 | IC50 [1, 22]: > 32 µM; IC50 [1, 23]: > 32 µM; IC50 [12]: > 32 µM; IC50 [13]: > 32 µM
21 | CCCCOc1cc(C)c(Cl)cc1S(=O)(=O)NCc1cccnc1 [DNDI0002558122] |  |  |  |  |  | > 32 | > 32 | IC50 [1, 22]: 16.6 µM; IC50 [1, 23]: 16.6 µM; IC50 [13]: 25.4 µM
22 | COc1cc(S(=O)(=O)NCc2ccccc2)c(OC)cc1C [DNDI0002564850] |  |  |  |  |  | > 32 | > 32 | IC50 [1, 22]: > 32 µM; IC50 [1, 23]: > 32 µM; IC50 [12]: > 32 µM; IC50 [13]: > 32 µM
23 | CCCOc1cc(C)c(Cl)cc1S(=O)(=O)NCc1cccs1 [DNDI0002572626] |  |  |  |  |  | > 32 | > 32 | IC50 [1, 22]: 25.1 µM; IC50 [1, 23]: 25.4 µM; IC50 [12]: > 32 µM; IC50 [13]: > 32 µM
24 | COc1cc(S(=O)(=O)NC(C)c2ccccc2)c(OC)cc1C (stereo not shown) [DNDI0002622495] |  |  |  |  |  | > 32 | > 32 | IC50 [1, 22]: > 32 µM; IC50 [1, 23]: > 32 µM; IC50 [12]: > 32 µM; IC50 [13]: > 32 µM
25 | Cc1nnc2ccc(S(=O)(=O)N(Cc3cccc(F)c3)c3ccc4c(c3)OCO4)cn12 [DNDI0003321887] |  |  |  |  |  |  |  | IC50 [2, 24]: > 30 µM
26 | O=S(=O)(c1ccc2nncn2c1)N(Cc1ccccc1F)c1ccc2c(c1)OCO2 [DNDI0003321889] |  |  |  |  |  |  |  | IC50 [2, 24]: > 30 µM
27 | O=c1[nH]cccc1S(=O)(=O)N(Cc1ccc(F)cc1)Cc1ccc(F)cc1 [DNDI0003371165] |  |  |  |  |  | > 64 | > 64 | CC50 [14]: > 64 µM; CC50 [15]: 23.2 µM; Papp [16]: 23.6 ×10⁻⁶ cm/s; IC50 [1, 25]: > 64 µM; IC50 [1, 26]: > 64 µM; IC50 [12]: 42.3 µM; microsomal CLint at 0.5 μM [3, 27]: 44 µL/min/mg; microsomal CLint at 0.5 μM [4, 28]: 218 µL/min/mg; chromatographic logD [17]: 3.8
28 | [2H]C([2H])([2H])Oc1ncccc1S(=O)(=O)N(Cc1ccc(F)cc1)Cc1ccc(F)cc1 [DNDI0003371166] |  |  |  |  |  | > 64 | > 64 | CC50 [14]: 18.9 µM; CC50 [15]: 41.8 µM; Papp [16]: 4.95 ×10⁻⁶ cm/s; IC50 [1, 25]: 32.4 µM; IC50 [1, 26]: 32.1 µM; IC50 [12]: 20.8 µM; microsomal CLint at 0.5 μM [3, 27]: 14 µL/min/mg; microsomal CLint at 0.5 μM [4, 28]: 123 µL/min/mg; chromatographic logD [17]: 3.5
29 | O=S(=O)(c1cccnc1OC(F)F)N(Cc1ccc(F)cc1)Cc1ccc(F)cc1 [DNDI0003371167] |  |  |  |  |  | > 64 | > 64 | CC50 [14]: > 64 µM; CC50 [15]: > 64 µM; Papp [16]: 0.98 ×10⁻⁶ cm/s; IC50 [1, 25]: 9.33 µM; IC50 [1, 26]: 9.4 µM; IC50 [12]: 31.2 µM; microsomal CLint at 0.5 μM [3, 27]: 751 µL/min/mg; microsomal CLint at 0.5 μM [4, 28]: 3070 µL/min/mg; chromatographic logD [17]: 4.8
30 | Cn1cccc(S(=O)(=O)N(Cc2ccc(F)cc2)Cc2ccc(F)cc2)c1=O [DNDI0003371168] |  |  |  |  |  | > 64 | > 64 | CC50 [14]: > 64 µM; CC50 [15]: 62.5 µM; Papp [16]: 18.3 ×10⁻⁶ cm/s; IC50 [1, 25]: 20.4 µM; IC50 [1, 26]: 20.5 µM; IC50 [12]: 24.5 µM; microsomal CLint at 0.5 μM [3, 27]: 222 µL/min/mg; microsomal CLint at 0.5 μM [4, 28]: 629 µL/min/mg; chromatographic logD [17]: 3.8
31 | COc1ncccc1S(=O)(=O)N(Cc1ccc(F)cc1)Cc1ccc(F)cc1 [DNDI0003371169] |  |  |  |  |  | > 64 | > 64 | CC50 [14]: > 64 µM; CC50 [15]: > 64 µM; Papp [16]: 2.56 ×10⁻⁶ cm/s; IC50 [1, 25]: 12.9 µM; IC50 [1, 26]: 13 µM; IC50 [12]: 44.2 µM; microsomal CLint at 0.5 μM [3, 27]: 334 µL/min/mg; microsomal CLint at 0.5 μM [4, 28]: 1170 µL/min/mg; chromatographic logD [17]: 4.4
